According to ChEMBL document CHEMBL4138232, “O2-(2,4-dinitrophenyl)diazeniumdiolates derivatives: Design, synthesis, cytotoxic evaluation and reversing MDR in MCF-7/ADR cells” (Eur J Med Chem, 2018):

How the values were obtained:
[1] = molecular target: T1, Glutathione S-transferase P (Homo sapiens, UniProt P09211); test: Prodrug activation in human HCT116 cells assessed as GST-Pi-mediated NO release at 5 uM after 24 hrs by nitrate reductase assay; format: cell-based
[2] = Cytotoxicity against ADR-sensitive human MCF7 cells assessed as inhibition of cell viability at 10 uM after 48 hrs by MTT assay relative to control; format: cell-based; settings: read-out: INH
[3] = Selectivity ratio of IC50 for human U2OS cells to IC50 for human MDA-MB-231 cells; format: functional
[4] = Selectivity ratio of IC50 for human A549 cells to IC50 for human MDA-MB-231 cells; format: functional
[5] = test system: A549; test: Antiproliferative activity against human A549 cells after 48 hrs by MTT assay relative to control; format: functional, cell-based; settings: A549, 48 h
[6] = Selectivity ratio of IC50 for human MCF10A cells to IC50 for human MDA-MB-231 cells; format: toxicity; settings: MCF10A cells versus MDA-MB-231 cells, read-out: Ratio IC50
[7] = Selectivity ratio of IC50 for human HCT116 cells to IC50 for human MDA-MB-231 cells; format: functional
[8] = test system: HCT-116; test: Cytotoxicity against human HCT116 cells overexpressing GST-Pi assessed as inhibition of cell viability at 10 uM after 48 hrs by MTT assay relative to control; format: functional; settings: HCT-116, 48 h
[9] = test system: MCF7; test: Cytotoxicity against ADR-sensitive human MCF7 cells assessed as inhibition of cell viability after 48 hrs by MTT assay; format: cell-based; settings: MCF7, 48 h
[10] = test system: U2OS; test: Antiproliferative activity against human U2OS cells after 48 hrs by MTT assay relative to control; format: functional, cell-based
[11] = molecular target: T1, Glutathione S-transferase P; test: Prodrug activation in human HCT116 cells assessed as GST-Pi-mediated NO release at 5 uM after 24 hrs in presence of GST-Pi inhibitor etacrynic acid by nitrate reductase assay; format: cell-based
[12] = species: Homo sapiens; test: Inhibition of MDR in human MCF7/ADR cells assessed as potentiation of adriamycin-induced antiproliferative activity by measuring fold reduction in adriamycin IC50 at 10 uM after 48 hrs by MTT assay; format: cell-based
[13] = molecular target: T1, Glutathione S-transferase P; test: Prodrug activation in human HCT116 cells assessed as GST-Pi-mediated NO release at 5 uM after 24 hrs in presence of NO scavenger carboxy-PTIO by nitrate reductase assay; format: cell-based
[14] = test system: HCT-116; test: Antiproliferative activity against human HCT116 cells after 48 hrs by MTT assay relative to control; format: functional, cell-based; settings: HCT-116, 48 h
[15] = test system: MCF-10A; test: Antiproliferative activity against human MCF10A cells after 48 hrs by MTT assay relative to control; format: cell-based
[16] = test system: MDA-MB-231; test: Antiproliferative activity against human MDA-MB-231 cells after 48 hrs by MTT assay relative to control; format: functional, cell-based; settings: MDA-MB-231, 48 h
[17] = molecular target: T1, Glutathione S-transferase P; test: Prodrug activation in human HCT116 cells assessed as GST-Pi-mediated NO release at 5 uM by nitrate reductase assay; format: cell-based

T1 sequence (P09211 whole entry): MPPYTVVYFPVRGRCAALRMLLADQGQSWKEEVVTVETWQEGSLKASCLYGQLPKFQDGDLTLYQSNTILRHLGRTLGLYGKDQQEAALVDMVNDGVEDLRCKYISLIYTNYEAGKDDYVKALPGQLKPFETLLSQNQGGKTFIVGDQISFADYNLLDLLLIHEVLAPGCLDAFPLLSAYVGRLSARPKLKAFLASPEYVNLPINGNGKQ

Row | SMILES | Drug metabolism [1] | cytotoxicity at 48 h, 10 µM [2] [%] | Ratio IC50 [3] | Ratio IC50 [4] | IC50 [5] [µM] | selectivity ratio [6] | Ratio IC50 [7] | inhibition at 10 µM [8] [%] | IC50 [9] [µM] | IC50 [10] [µM] | Drug metabolism [11] | fold change (FC) [12] | Drug metabolism [13] | IC50 [14] [µM] | IC50 [15] [µM] | IC50 [16] [µM] | Drug metabolism [17]
1 | CC(=O)N1N=C(c2cccc(Oc3cc(O/N=[N+](\[O-])N4CCCCC4)c([N+](=O)[O-])cc3[N+](=O)[O-])c2)CC1c1ccc(C)cc1 (stereo not drawn) | Metabolite_Detected | 5.16 | 2.1 | 1.6 | 7.31 | 15.5 | 0.3 | 75.9 | 22.8 | 9.43 | Metabolite_Notdetected | 18 | Metabolite_Notdetected | 1.3 | 70.9 | 4.57 | –
2 | CC(=O)N1N=C(c2cccc(Oc3cc(O/N=[N+](\[O-])N4CCCCC4)c([N+](=O)[O-])cc3[N+](=O)[O-])c2)CC1c1ccc(N(C)C)cc1 (stereo not drawn) | Metabolite_Detected | 13.4 | 1.2 | 1.4 | 7.66 | 18 | 0.6 | 81.3 | 20.2 | 6.3 | Metabolite_Notdetected | 26.6 | Metabolite_Notdetected | 3.43 | 95.3 | 5.29 | –
3 | CC(=O)N1N=C(c2cccc(Oc3cc(O/N=[N+](\[O-])N4CCOCC4)c([N+](=O)[O-])cc3[N+](=O)[O-])c2)CC1c1ccc(C)cc1 (stereo not drawn) | – | 20.2 | 1 | 0.5 | 1.87 | 3.1 | 1.1 | 77.8 | 21.6 | 3.86 | Metabolite_Notdetected | 49.7 | Metabolite_Notdetected | 4.44 | 11.9 | 3.85 | Dose-dependent effect
4 | COc1ccc(/C=C/C(=O)c2cccc(Oc3cc(O/N=[N+](\[O-])N4CCOCC4)c([N+](=O)[O-])cc3[N+](=O)[O-])c2)cc1OC | Metabolite_Detected | 18 | 0.9 | 1 | 5.99 | 10.2 | 0.7 | 75.6 | 28.3 | 5.77 | Metabolite_Notdetected | 66.3 | Metabolite_Notdetected | 4.59 | 62.1 | 6.1 | –
5 | COc1ccc(C2CC(c3cccc(Oc4cc(O/N=[N+](\[O-])N5CCOCC5)c([N+](=O)[O-])cc4[N+](=O)[O-])c3)=NN2C(C)=O)cc1OC (stereo not drawn) | Metabolite_Detected | 13 | 3.7 | 2.3 | 1.54 | 15.3 | 1.9 | 81.2 | 22.7 | 2.46 | Metabolite_Notdetected | 14.3 | Metabolite_Notdetected | 1.27 | 10.1 | 0.66 | Dose-dependent effect
6 | CCCCOc1ccc(C2CC(c3cccc(Oc4cc(O/N=[N+](\[O-])N5CCOCC5)c([N+](=O)[O-])cc4[N+](=O)[O-])c3)=NN2C(C)=O)cc1OC (stereo not drawn) | Metabolite_Detected | 23.6 | 0.5 | 0.3 | 1.46 | 3.4 | 0.4 | 75.7 | 19.2 | 2.19 | Metabolite_Notdetected | 63 | Metabolite_Notdetected | 1.86 | 15.2 | 4.4 | Dose-dependent effect
7 | CC(=O)N1N=C(c2cccc(Oc3cc(O/N=[N+](\[O-])N4CCOCC4)c([N+](=O)[O-])cc3[N+](=O)[O-])c2)CC1c1ccc(N(C)C)cc1 (stereo not drawn) | – | 21.9 | 0.8 | 0.7 | 1.97 | 5.6 | 0.9 | 78.3 | 22 | 2.46 | Metabolite_Notdetected | 33.4 | Metabolite_Notdetected | 2.7 | 16.4 | 2.9 | Dose-dependent effect
8 | COc1cc(C2CC(c3cccc(Oc4cc(O/N=[N+](\[O-])N5CCOCC5)c([N+](=O)[O-])cc4[N+](=O)[O-])c3)=NN2C(C)=O)cc(OC)c1OC (stereo not drawn) | – | 13.3 | 4.2 | 4.2 | 6.11 | 41.2 | 6.5 | 76.2 | 44.3 | 6.13 | – | 1.53 | – | 6.46 | 59.4 | 1.44 | Dose-dependent effect
9 | COc1ccc(C2CC(c3cccc(Oc4cc(O/N=[N+](\[O-])N5CCCCC5)c([N+](=O)[O-])cc4[N+](=O)[O-])c3)=NN2C(C)=O)cc1OC (stereo not drawn) | Metabolite_Detected | 17.2 | 4.9 | 0.7 | 1.02 | 13.6 | 1 | 80.9 | 25.2 | 6.74 | Metabolite_Notdetected | 71.7 | Metabolite_Notdetected | 1.43 | 18.7 | 1.37 | –
10 | COc1ccc(C2CC(c3cccc(Oc4cc(O/N=[N+](\[O-])N5CCOCC5)c([N+](=O)[O-])cc4[N+](=O)[O-])c3)=NN2C(C)=O)cc1 (stereo not drawn) | – | 21.2 | 1.7 | 1.3 | 2.86 | 6.1 | 2.6 | 79.9 | 31.9 | 3.69 | – | 56.6 | – | 5.58 | 12.9 | 2.11 | Dose-dependent effect
